# Test results as given in article PMC4468608, “A distinct p53 target gene set predicts for response to the selective p53–HDM2 inhibitor NVP-CGM097” (eLife, 2015).
# Test system: cell lines from the Cancer Cell Line Encyclopedia (CCLE)
# Assay: High-throughput cell viability assay, CCLE cell line panel (n = 356)
# Assay type: cell-based, human
# Experimental: Cell lines were partitioned into sensitive and insensitive groups based on compound potency (IC50). […] All other cell lines were obtained from ATCC (American Type Culture Collection), DSMZ (Deutsche Sammlung von Mikroorganismen und Zellkulturen), and HSRRB (Health Science Research Resources Bank) and cultured in RPMI or Dulbecco's modified Eagle's medium plus 10% FBS (Invitrogen, Carlsbad, CA) at 37°C, 5% CO2.
# [1] = PE/CA-PJ34 (clone C12), TP53 MUT
# [2] = cell line A172, central_nervous_system, TP53 WT
# [3] = cell line BICR 31, upper_aerodigestive_tract, TP53 MUT
# [4] = cell line CAL-85-1, breast, TP53 MUT
# [5] = cell line CAMA-1, breast, TP53 MUT
# [6] = cell line CCK-81, large_intestine, TP53 MUT
# [7] = cell line COV504, ovary, TP53 MUT
# [8] = cell line Capan-2, pancreas, TP53 WT
# [9] = cell line ES-2, ovary, TP53 MUT
# [10] = cell line ESS-1, endometrium, TP53 MUT
# [11] = cell line HEC-108, endometrium, TP53 MUT
# [12] = cell line HEC-265, endometrium, TP53 WT
# [13] = cell line HSC-2, upper_aerodigestive_tract, TP53 MUT
# [14] = cell line Hs 618.T, lung, TP53 WT
# [15] = cell line Hs 888.T, bone, TP53 WT
# [16] = cell line Hs 944.T, skin, TP53 WT
# [17] = cell line IM95, stomach, TP53 WT
smiles,measurement,setting,value
COc1cc2c(cc1OC(C)C)[C@H](c1ccc(Cl)cc1)N(c1ccc(N(C)C[C@H]3CC[C@H](N4CCNC(=O)C4)CC3)cc1)C(=O)C2 [NVP-CFC218],Amax,"ONS-76, TP53 WT",-16.12%
same,sensitivity call,"ONS-76, TP53 WT",insensitive (Sensitivity call for each compound was applied according to a cut-off of 4 µM for IC50 and -50% for Amax)
same,Amax,"OV-90, TP53 MUT",-1.39%
same,sensitivity call,"OV-90, TP53 MUT",insensitive (Sensitivity call for each compound was applied according to a cut-off of 4 µM for IC50 and -50% for Amax)
same,Amax,"P3HR-1, TP53 MUT",-48.91%
same,sensitivity call,"P3HR-1, TP53 MUT",insensitive (Sensitivity call for each compound was applied according to a cut-off of 4 µM for IC50 and -50% for Amax)
same,Amax,"P31/FUJ, TP53 MUT",4.23%
same,sensitivity call,"P31/FUJ, TP53 MUT",insensitive (Sensitivity call for each compound was applied according to a cut-off of 4 µM for IC50 and -50% for Amax)
same,Amax,"PA-TU-8902, TP53 MUT",0.96%
same,sensitivity call,"PA-TU-8902, TP53 MUT",insensitive (Sensitivity call for each compound was applied according to a cut-off of 4 µM for IC50 and -50% for Amax)
same,Amax,[1],1.01%
same,sensitivity call,[1],insensitive (Sensitivity call for each compound was applied according to a cut-off of 4 µM for IC50 and -50% for Amax)
same,Amax,"PK-45H, TP53 WT",-18.84%
same,sensitivity call,"PK-45H, TP53 WT",insensitive (Sensitivity call for each compound was applied according to a cut-off of 4 µM for IC50 and -50% for Amax)
same,Amax,"PL-21, TP53 MUT",-37.95%
same,sensitivity call,"PL-21, TP53 MUT",insensitive (Sensitivity call for each compound was applied according to a cut-off of 4 µM for IC50 and -50% for Amax)
same,Amax,"QGP-1, TP53 WT",6.30%
same,sensitivity call,"QGP-1, TP53 WT",insensitive (Sensitivity call for each compound was applied according to a cut-off of 4 µM for IC50 and -50% for Amax)
same,Amax,"Raji, TP53 MUT",-0.41%
same,sensitivity call,"Raji, TP53 MUT",insensitive (Sensitivity call for each compound was applied according to a cut-off of 4 µM for IC50 and -50% for Amax)
same,Amax,"SCC-4, TP53 MUT",-11.24%
same,sensitivity call,"SCC-4, TP53 MUT",insensitive (Sensitivity call for each compound was applied according to a cut-off of 4 µM for IC50 and -50% for Amax)
same,Amax,"SCC-9, TP53 MUT",10.57%
same,sensitivity call,"SCC-9, TP53 MUT",insensitive (Sensitivity call for each compound was applied according to a cut-off of 4 µM for IC50 and -50% for Amax)
same,Amax,"SK-N-FI, TP53 MUT",-7.80%
same,sensitivity call,"SK-N-FI, TP53 MUT",insensitive (Sensitivity call for each compound was applied according to a cut-off of 4 µM for IC50 and -50% for Amax)
same,Amax,"SNU-475, TP53 MUT",-7.74%
same,sensitivity call,"SNU-475, TP53 MUT",insensitive (Sensitivity call for each compound was applied according to a cut-off of 4 µM for IC50 and -50% for Amax)
same,Amax,"SU-DHL-8, TP53 MUT",11.70%
same,sensitivity call,"SU-DHL-8, TP53 MUT",insensitive (Sensitivity call for each compound was applied according to a cut-off of 4 µM for IC50 and -50% for Amax)
same,Amax,"SW579, TP53 MUT",-2.22%
same,sensitivity call,"SW579, TP53 MUT",insensitive (Sensitivity call for each compound was applied according to a cut-off of 4 µM for IC50 and -50% for Amax)
same,Amax,"SW 1271, TP53 MUT",-7.26%
same,sensitivity call,"SW 1271, TP53 MUT",insensitive (Sensitivity call for each compound was applied according to a cut-off of 4 µM for IC50 and -50% for Amax)
same,Amax,"SW 1990, TP53 MUT",-0.73%
same,sensitivity call,"SW 1990, TP53 MUT",insensitive (Sensitivity call for each compound was applied according to a cut-off of 4 µM for IC50 and -50% for Amax)
same,Amax,"TE-1, TP53 MUT",-0.82%
same,sensitivity call,"TE-1, TP53 MUT",insensitive (Sensitivity call for each compound was applied according to a cut-off of 4 µM for IC50 and -50% for Amax)
same,Amax,"TE-5, TP53 MUT",31.38%
same,sensitivity call,"TE-5, TP53 MUT",insensitive (Sensitivity call for each compound was applied according to a cut-off of 4 µM for IC50 and -50% for Amax)
same,Amax,"U-87 MG, TP53 WT",-45.86%
same,sensitivity call,"U-87 MG, TP53 WT",insensitive (Sensitivity call for each compound was applied according to a cut-off of 4 µM for IC50 and -50% for Amax)
same,Amax,"WM-266-4, TP53 WT",-75.96%
same,sensitivity call,"WM-266-4, TP53 WT",sensitive (Sensitivity call for each compound was applied according to a cut-off of 4 µM for IC50 and -50% for Amax)
same,Amax,"WM-983B, TP53 MUT",-25.79%
same,sensitivity call,"WM-983B, TP53 MUT",insensitive (Sensitivity call for each compound was applied according to a cut-off of 4 µM for IC50 and -50% for Amax)
same,Amax,"YKG1, TP53 MUT",-29.61%
same,sensitivity call,"YKG1, TP53 MUT",insensitive (Sensitivity call for each compound was applied according to a cut-off of 4 µM for IC50 and -50% for Amax)
same,NVP- CFC218 Amax (%),[2],-49.68%
same,NVP- CFC218 sensitivity call,[2],insensitive (Sensitivity call for each compound was applied according to a cut-off of 4 µM for IC50 and -50% for Amax)
same,NVP- CFC218 Amax (%),[3],-33.34%
same,NVP- CFC218 sensitivity call,[3],insensitive (Sensitivity call for each compound was applied according to a cut-off of 4 µM for IC50 and -50% for Amax)
same,NVP- CFC218 Amax (%),"cell line C3A, liver, TP53 WT",-7.36%
same,NVP- CFC218 sensitivity call,"cell line C3A, liver, TP53 WT",insensitive (Sensitivity call for each compound was applied according to a cut-off of 4 µM for IC50 and -50% for Amax)
same,NVP- CFC218 Amax (%),"cell line C32, skin, TP53 WT",-3.08%
same,NVP- CFC218 sensitivity call,"cell line C32, skin, TP53 WT",insensitive (Sensitivity call for each compound was applied according to a cut-off of 4 µM for IC50 and -50% for Amax)
same,NVP- CFC218 Amax (%),[4],-3.57%
same,NVP- CFC218 sensitivity call,[4],insensitive (Sensitivity call for each compound was applied according to a cut-off of 4 µM for IC50 and -50% for Amax)
same,NVP- CFC218 Amax (%),[5],-26.17%
same,NVP- CFC218 sensitivity call,[5],insensitive (Sensitivity call for each compound was applied according to a cut-off of 4 µM for IC50 and -50% for Amax)
same,NVP- CFC218 Amax (%),[6],4.13%
same,NVP- CFC218 sensitivity call,[6],insensitive (Sensitivity call for each compound was applied according to a cut-off of 4 µM for IC50 and -50% for Amax)
same,NVP- CFC218 Amax (%),[7],-21.97%
same,NVP- CFC218 sensitivity call,[7],insensitive (Sensitivity call for each compound was applied according to a cut-off of 4 µM for IC50 and -50% for Amax)
same,NVP- CFC218 Amax (%),[8],-4.99%
same,NVP- CFC218 sensitivity call,[8],insensitive (Sensitivity call for each compound was applied according to a cut-off of 4 µM for IC50 and -50% for Amax)
same,NVP- CFC218 Amax (%),[9],-22.65%
same,NVP- CFC218 sensitivity call,[9],insensitive (Sensitivity call for each compound was applied according to a cut-off of 4 µM for IC50 and -50% for Amax)
same,NVP- CFC218 Amax (%),[10],0.05%
same,NVP- CFC218 sensitivity call,[10],insensitive (Sensitivity call for each compound was applied according to a cut-off of 4 µM for IC50 and -50% for Amax)
same,NVP- CFC218 Amax (%),[11],-7.25%
same,NVP- CFC218 sensitivity call,[11],insensitive (Sensitivity call for each compound was applied according to a cut-off of 4 µM for IC50 and -50% for Amax)
same,NVP- CFC218 Amax (%),[12],-37.19%
same,NVP- CFC218 sensitivity call,[12],insensitive (Sensitivity call for each compound was applied according to a cut-off of 4 µM for IC50 and -50% for Amax)
same,NVP- CFC218 Amax (%),[13],8.13%
same,NVP- CFC218 sensitivity call,[13],insensitive (Sensitivity call for each compound was applied according to a cut-off of 4 µM for IC50 and -50% for Amax)
same,NVP- CFC218 Amax (%),[14],-49.34%
same,NVP- CFC218 sensitivity call,[14],insensitive (Sensitivity call for each compound was applied according to a cut-off of 4 µM for IC50 and -50% for Amax)
same,NVP- CFC218 Amax (%),[15],-45.50%
same,NVP- CFC218 sensitivity call,[15],insensitive (Sensitivity call for each compound was applied according to a cut-off of 4 µM for IC50 and -50% for Amax)
same,NVP- CFC218 Amax (%),[16],-32.86%
same,NVP- CFC218 sensitivity call,[16],insensitive (Sensitivity call for each compound was applied according to a cut-off of 4 µM for IC50 and -50% for Amax)
same,NVP- CFC218 Amax (%),[17],33.79%
same,NVP- CFC218 sensitivity call,[17],insensitive (Sensitivity call for each compound was applied according to a cut-off of 4 µM for IC50 and -50% for Amax)
same,NVP- CFC218 Amax (%),"cell line JHOS-2, ovary, TP53 MUT",-32.44%
